Measured values taken from US20250122217A1, “ANHYDROUS CRYSTALLINE FORMS OF 2-((4S)-6-(4-CHLOROPHENYL)-1-METHYL-4H-BENZO[C]ISOXAZOLO[4,5-E]AZEPIN-4-YL)ACETAMIDE” (CONSTELLATION PHARMACEUTICALS. INC., priority 2022, published 2025).

How the values were obtained:
[1] = Competitive slurry experiments of crystalline forms, XRD readout; assay type: physicochemical; conditions: for water activities at which the form is thermodynamically stable: conclusion from the competitive slurries of Table 3; for XRD result of competitive slurry: about 5-7 days
Protocol: The following competitive slurry experiments were performed using inventive anhydrous Form B and monohydrate Form A disclosed in U.S. Pat. No. 9,969,747.
Aqueous mixtures were created and tested in duplicate for water activity at ambient temperature. Amorphous Pelabresib was used to create a saturated solution in the respective solvent. The supernatant was added to solids of monohydrate Form A and anhydrous Form B and allowed to stir at the respective temperature for about 5-7 days. In all samples except for the butanol:water mixture, a small quantity of Form C was also added to the competitive slurry. Form C can be prepared by slurring amorphous pelabresib in water:ethanol (90:10) for about 5 days The results of the competitive slurries are shown below in Table 3.

[2] = Dynamic vapor sorption (DVS); assay type: physicochemical
in vivo = assay: in vivo; set-up: species or system beagle dogs; conditions: male, beagle, dog, po, 5 mg/kg
Protocol: Single dose PK parameters in plasma were determined following oral gavage administration of micronized anhydrous Form B at 5 mg/kg to male beagle dogs (n=6/Group) in 0.5% (w/v) aqueous Methocel (4000 cps). The dose volume of PO groups was 2 mL/kg. For intravenous (0.5 mg/kg) and oral gavage (5 mg/kg), plasma samples were collected at the following time points: 0, 0.25, 0.5, 1, 2, 4, 6, 8, 12, 24 h post dose and analyzed. […] (5 mg/kg, 2.5 mg/mL, suspension).

| water activities at which the form is thermodynamically stable [1] [%] | XRD result of competitive slurry ([1]; Form A + Form B (no Form C), 2-butanol:water (95:5), water activity 0.72, 40° C.) | XRD result of competitive slurry ([1]; Form A + Form B (no Form C), 2-butanol:water (95:5), water activity 0.72, RT) | XRD result of competitive slurry ([1]; Form A + Form B + small quantity of Form C, EtOH:water (90:10), water activity 0.54, 40° C.) | XRD result of competitive slurry ([1]; Form A + Form B + small quantity of Form C, EtOH:water (90:10), water activity 0.54, RT) | XRD result of competitive slurry ([1]; Form A + Form B + small quantity of Form C, IPA:water (98:2), water activity 0.27, 40° C.) | XRD result of competitive slurry ([1]; Form A + Form B + small quantity of Form C, IPA:water (98:2), water activity 0.27, RT) | XRD result of competitive slurry ([1]; Form A + Form B + small quantity of Form C, THF:water (10:90), water activity 0.97, 40° C.) | XRD result of competitive slurry ([1]; Form A + Form B + small quantity of Form C, THF:water (10:90), water activity 0.97, RT) | hygroscopicity by DVS ([2]; DVS profile, FIG. 3) | weight gain (DVS) ([2]; at 95% RH) | AUC(0-t) (in vivo) [ng·h/mL] | Cmax (in vivo) [ng/mL] | Tmax (in vivo) [h] | SMILES |
| --- | --- | --- | --- | --- | --- | --- | --- | --- | --- | --- | --- | --- | --- | --- |
| ≥ 97 |  |  |  |  |  |  |  |  |  |  |  |  |  | Cc1noc2c1-c1ccccc1C(c1ccc(Cl)cc1)=N[C@H]2CC(N)=O (single isomer, unassigned) [Form A, reference compound] |
|  | Form B | Form B | Form B | Form B | Form B + small peak | Form B | Form A | Form C |  |  |  |  |  | Cc1noc2c1-c1ccccc1C(c1ccc(Cl)cc1)=N[C@H]2CC(N)=O [Pelabresib, 2-((4S)-6-(4-chlorophenyl)-1-methyl-4H-benzo[c]isoxazolo[4,5-e]azepin-4-yl)acetamide] |
| ≤ 72 |  |  |  |  |  |  |  |  | non-hygroscopic | about 0.5% | 12100 ± 1450 | 1750 ± 225 | 1.17 ± 0.41 | Cc1noc2c1-c1ccccc1C(c1ccc(Cl)cc1)=N[C@H]2CC(N)=O (single isomer, unassigned) [Form B] |
